# Measurements as given in patent US11021446B2 (NOVARTIS AG, priority 2013, dated 2021).
# pEC50: −log10 of the molar value.
# Target: T1, human Farnesoid X Receptor (FXR) ligand binding domain (GST-FXR LBD) (Homo sapiens, UniProt Q96RI1)
# T1 construct: purchased Invitrogen
# T1 sequence (Q96RI1 193-472 isoform Q96RI1-2): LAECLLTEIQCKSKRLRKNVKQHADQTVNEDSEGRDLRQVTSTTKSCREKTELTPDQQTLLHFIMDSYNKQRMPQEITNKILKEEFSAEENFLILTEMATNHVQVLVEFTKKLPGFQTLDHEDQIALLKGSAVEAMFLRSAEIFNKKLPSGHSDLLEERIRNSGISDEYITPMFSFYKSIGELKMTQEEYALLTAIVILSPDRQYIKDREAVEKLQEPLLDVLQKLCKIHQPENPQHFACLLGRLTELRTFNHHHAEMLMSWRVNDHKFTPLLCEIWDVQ
# Assay: Human GST-FXR LBD co-activator interaction assay (FXR HTRF assay)
# Assay type: biochemical
# Conditions: GST-FXR LBD interaction with biotin-labeled SRC-1 peptide, FRET, response relative to GW4064, read-out: FXR coactivator interaction assay (HTRF)
# Description: Human GST-FXR LBD Co-Activator Interaction Assay
# The FXR HTRF assay is a biochemical assay measuring the interaction between FXR and a coactivator protein (SRC1). The ligand-induced interaction with a coactivator protein is a critical step in transcriptional activation by FXR. Thus, this is an assay designed to measure FXR agonist activity of the test compounds.
# Recombinant human Farnesoid X Receptor (FXR) ligand binding domain (amino acids 193-472) fused to glutathione S-transferase (GST) purified protein (GST-FXR LBD) was purchased (Invitrogen). The ligand-dependent interaction between GST-FXR LBD and a peptide derived from Steroid Receptor Coactivator-1 (SRC-1) was monitored by Fluorescence Resonance Energy Transfer (FRET). […] Test compounds (in DMSO solution) and detection reagents (anti-GST-Cryptate labeled antibody and Streptavidin-XL665 conjugate; CisBio) were added in assay buffer containing 50 mM KF. Plates are incubated at room temperature in the dark for 2.5 hrs before reading on an Envision (PerkinElmer) at 665 nm and 590 nm. The HTRF assay results were calculated from the 665 nm/590 nm ratio (ratio=(A665 nm/A590 nm)×10^4) and expressed in Delta F %=(Ratiosample−Rationegative)/Rationegative×100.
# A negative control (without Streptavidin-XL665) was run with each assay and represented the background fluorescence. A reference FXR agonist, (E)-3-(2-chloro-4-((3-(2,6-dichlorophenyl)-5-isopropylisoxazol-4-yl)methoxy)styryl)benzoic acid (Compound GW4064), was included in each experiment as positive control. The efficacy of each test compound was compared to that of GW4064. At each concentration, the relative activity of the test compound was expressed as Response %=(Rsample−RDMSO)/(Rpositive−RDMSO), where Rsample is the HTRF response (expressed in Delta F %) for the test compound, Rpositive is the maximal response for GW4064 at saturating concentrations, and RDMSO is the response for DMSO control. The EC50 values were calculated using GraphPad Prism (GraphPad Software) using non-linear regression curve fit (log(agonist) vs. response-variable slope (four parameters)).
row,pEC50,Structure (SMILES)
1,9.29,"Cc1cccc(CN(CC(=O)Nc2cc(C(=O)O)ccc2F)C(=O)c2nn(C)c3c2COc2ccc(Cl)cc2-3)c1 [Compound 3, 3-(2-(8-chloro-1-methyl-N-(3-methylbenzyl)-1,4-dihydrochromeno[4,3-c]pyrazole-3-carboxamido)acetamido)-4-fluorobenzoic acid]"
2,9.12,"Cc1cccc(CN(CC(=O)Nc2cc(C(=O)O)ccc2F)C(=O)c2nn(C)c3c2COc2ccccc2-3)c1 [Compound 4, 4-fluoro-3-(2-(1-methyl-N-(3-methylbenzyl)-1,4-dihydrochromeno[4,3-c]pyrazole-3-carboxamido)acetamido)benzoic acid]"
3,9.10,"Cc1ccc2c(c1)-c1c(c(C(=O)N(CC(=O)Nc3cccc(C(=O)O)c3)Cc3ccccc3F)nn1C)CO2 [Compound 5, 3-(2-(N-(2-fluorobenzyl)-1,8-dimethyl-1,4-dihydrochromeno[4,3-c]pyrazole-3-carboxamido)acetamido)benzoic acid]"
4,8.62,"Cc1cccc2c1OCc1c(C(=O)N(CC(=O)Nc3cccc(C(=O)O)c3)Cc3ccccc3F)nn(C)c1-2 [Compound 6, 3-(2-(N-(2-fluorobenzyl)-1,6-dimethyl-1,4-dihydrochromeno[4,3-c]pyrazole-3-carboxamido)acetamido)benzoic acid]"
5,9.00,"Cn1nc(C(=O)N(CC(=O)Nc2cccc(C(=O)O)c2)Cc2ccccc2F)c2c1-c1cc(F)ccc1OC2 [Compound 7, 3-(2-(8-fluoro-N-(2-fluorobenzyl)-1-methyl-1,4-dihydrochromeno[4,3-c]pyrazole-3-carboxamido)acetamido)benzoic acid]"
6,8.48,"Cn1nc(C(=O)N(CC(=O)Nc2cccc(C(=O)O)c2)Cc2ccccc2F)c2c1-c1ccc(F)cc1OC2 [Compound 8, 3-(2-(7-fluoro-N-(2-fluorobenzyl)-1-methyl-1,4-dihydrochromeno[4,3-c]pyrazole-3-carboxamido)acetamido)benzoic acid]"
7,8.44,"Cn1nc(C(=O)N(CC(=O)Nc2cccc(C(=O)O)c2)Cc2ccccc2F)c2c1-c1ccc(Cl)cc1OC2 [Compound 9, 3-(2-(7-chloro-N-(2-fluorobenzyl)-1-methyl-1,4-dihydrochromeno[4,3-c]pyrazole-3-carboxamido)acetamido)benzoic acid]"
8,8.77,Cn1nc(C(=O)N(CC(=O)Nc2cccc(C(=O)O)c2)Cc2ccccc2F)c2c1-c1cc(F)c(F)cc1OC2 [Compound 10]
9,8.48,"Cn1nc(C(=O)N(CC(=O)Nc2cccc(C(=O)O)c2)Cc2ccccc2F)c2c1-c1cc(F)cc(F)c1OC2 [Compound 11, 3-(2-(6,8-difluoro-N-(2-fluorobenzyl)-1-methyl-1,4-dihydrochromeno[4,3-c]pyrazole-3-carboxamido)acetamido)benzoic acid]"
10,8.27,"Cn1nc(C(=O)N(CC(=O)Nc2cccc(C(=O)O)c2)Cc2ccccc2F)c2c1-c1ccccc1OC2 [Compound 12, 3-(2-(N-(2-fluorobenzyl)-1-methyl-1,4-dihydrochromeno[4,3-c]pyrazole-3-carboxamido)acetamido)benzoic acid]"
11,9.10,"Cc1cc2c(cc1Cl)-c1c(c(C(=O)N(CC(=O)Nc3cccc(C(=O)O)c3)Cc3ccccc3F)nn1C)CO2 [Compound 13, 3-(2-(8-chloro-N-(2-fluorobenzyl)-1,7-dimethyl-1,4-dihydrochromeno[4,3-c]pyrazole-3-carboxamido)acetamido)benzoic acid]"
12,9.08,"Cc1cc(Cl)cc2c1OCc1c(C(=O)N(CC(=O)Nc3cccc(C(=O)O)c3)Cc3ccccc3F)nn(C)c1-2 [Compound 14, 3-(2-(8-chloro-N-(2-fluorobenzyl)-1,6-dimethyl-1,4-dihydrochromeno[4,3-c]pyrazole-3-carboxamido)acetamido)benzoic acid]"
13,8.65,"Cn1nc(C(=O)N(CC(=O)Nc2cccc(C(=O)O)c2)Cc2ccccc2F)c2c1-c1cc(Cl)cc(F)c1OC2 [Compound 15, 3-(2-(8-chloro-6-fluoro-N-(2-fluorobenzyl)-1-methyl-1,4-dihydrochromeno[4,3-c]pyrazole-3-carboxamido)acetamido)benzoic acid]"
14,8.47,"Cn1nc(C(=O)N(CC(=O)Nc2cc(C(=O)O)ccc2F)Cc2ccccc2F)c2c1-c1ccccc1OC2 [Compound 16, 4-fluoro-3-(2-(N-(2-fluorobenzyl)-1-methyl-1,4-dihydrochromeno[4,3-c]pyrazole-3-carboxamido)acetamido)benzoic acid]"
15,9.00,"Cn1nc(C(=O)N(CC(=O)Nc2cc(C(=O)O)ccc2F)Cc2ccccc2F)c2c1-c1cc(F)c(F)cc1OC2 [Compound 17, 3-(2-(7,8-difluoro-N-(2-fluorobenzyl)-1-methyl-1,4-dihydrochromeno[4,3-c]pyrazole-3-carboxamido)acetamido)-4-fluorobenzoic acid]"
16,9.40,"Cn1nc(C(=O)N(CC(=O)Nc2cc(C(=O)O)ccc2F)Cc2cccc(F)c2)c2c1-c1cc(F)c(F)cc1OC2 [Compound 18, 3-(2-(7,8-difluoro-N-(3-fluorobenzyl)-1-methyl-1,4-dihydrochromeno[4,3-c]pyrazole-3-carboxamido)acetamido)-4-fluorobenzoic acid]"
17,9.30,"Cn1nc(C(=O)N(CC(=O)Nc2cc(C(=O)O)ccc2F)Cc2ccccc2)c2c1-c1cc(F)c(F)cc1OC2 [Compound 19, 3-(2-(N-benzyl-7,8-difluoro-1-methyl-1,4-dihydrochromeno[4,3-c]pyrazole-3-carboxamido)acetamido)-4-fluorobenzoic acid]"
18,9.30,"Cc1cccc(CN(CC(=O)Nc2cc(C(=O)O)ccc2F)C(=O)c2nn(C)c3c2COc2ccc(F)cc2-3)c1 [Compound 20, 4-fluoro-3-(2-(8-fluoro-1-methyl-N-(3-methylbenzyl)-1,4-dihydrochromeno[4,3-c]pyrazole-3-carboxamido)acetamido)benzoic acid]"
19,8.49,"Cn1nc(C(=O)N(CC(=O)Nc2cccc(C(=O)O)c2)Cc2ccccc2F)c2c1-c1cc(Cl)ccc1CC2 [Compound 24, 3-(2-(8-chloro-N-(2-fluorobenzyl)-1-methyl-4,5-dihydro-1H-benzo[g]indazole-3-carboxamido)acetamido)benzoic acid]"
20,9.15,"Cn1nc(C(=O)N(CC(=O)Nc2cccc(C(=O)O)c2)Cc2ccccc2F)c2c1-c1cc(Cl)c(F)cc1OC2 [Compound 25, 3-(2-(8-chloro-7-fluoro-N-(2-fluorobenzyl)-1-methyl-1,4-dihydrochromeno[4,3-c]pyrazole-3-carboxamido)acetamido)benzoic acid]"
21,8.85,"Cn1nc(C(=O)N(CC(=O)Nc2cc(C(=O)O)ccc2F)Cc2cccc(F)c2)c2c1-c1ccccc1OC2 [Compound 27, 4-fluoro-3-(2-(N-(3-fluorobenzyl)-1-methyl-1,4-dihydrochromeno[4,3-c]pyrazole-3-carboxamido)acetamido)benzoic acid]"
22,9.42,"Cn1nc(C(=O)N(CC(=O)Nc2cc(C(=O)O)ccc2F)Cc2cccc(F)c2)c2c1-c1cc(Cl)ccc1OC2 [Compound 28, 3-(2-(8-chloro-N-(3-fluorobenzyl)-1-methyl-1,4-dihydrochromeno[4,3-c]pyrazole-3-carboxamido)acetamido)-4-fluorobenzoic acid]"
23,9.17,"Cn1nc(C(=O)N(CC(=O)Nc2cc(C(=O)O)ccc2F)Cc2ccccc2)c2c1-c1cc(Cl)ccc1OC2 [Compound 29, 3-(2-(N-benzyl-8-chloro-1-methyl-1,4-dihydrochromeno[4,3-c]pyrazole-3-carboxamido)acetamido)-4-fluorobenzoic acid]"
24,9.22,Cc1ccc(C(=O)O)cc1NC(=O)CN(Cc1ccccc1F)C(=O)c1nn(C)c2c1COc1ccc(Cl)cc1-2 [Compound 30]
25,9.33,"Cn1nc(C(=O)N(CC(=O)Nc2cccc(C(=O)O)c2)Cc2ccccc2)c2c1-c1cc(Cl)ccc1OC2 [Compound 31, 3-(2-(N-benzyl-8-chloro-1-methyl-1,4-dihydrochromeno[4,3-c]pyrazole-3-carboxamido)acetamido)benzoic acid]"
26,9.13,"Cn1nc(C(=O)N(CC(=O)Nc2cc(C(=O)O)ccc2F)Cc2ccccc2)c2c1-c1cc(F)ccc1OC2 [Compound 32, 3-(2-(N-benzyl-8-fluoro-1-methyl-1,4-dihydrochromeno[4,3-c]pyrazole-3-carboxamido)acetamido)-4-fluorobenzoic acid]"
